Patent US20050107289A1, “Anti-microbial peptides and compositions” (priority 2001, published 2005)
Like-named read-outs stand apart in the source and are kept apart here. Non-standard residues stand in square brackets, D forms with d. Residues, ends and D or L forms follow the SMILES beside them.

How the values were obtained:
murine red blood cells = assay: Red blood cell hemolysis; assay type: cell-based, mouse; parameters: RBC Hemolysis (HD50): unit not given here
Experimental: Selectivity of cyclic peptides for bacterial over mammalian cells was evaluated by measuring red blood cell hemolytic activities as described in Tosteson, M. T. Holmes, S. J., Razin, M. and Tosteson, D. C. Melittin Lysis of Red Cells, J. Membrane Biol. 87, 35-44(1985). Heparinized murine blood was centrifuged at 1000×g for 10 minutes. The supernatant and the buffy coat were removed. Erythrocytes were washed three times with 0.9% saline solution and then resuspended to a concentration of 5% in saline containing 10% FBS (v/v). Red blood cells were then treated with serial dilutions of test peptides in a 96 well plate at 37° C. for 30 minutes. Control samples included a saline solution arid 1% Triton X-100 as 0 and 100% hemolysis, respectively. In some cases, mellitin was used as a further control. Mellitin is a linear peptide that is hemolytic against mammalian red blood cells in vitro at a concentration of about 10 μg/ml. Plates were centrifuged at 1000 g for 10 minutes. Aliquots of the supernatant were diluted 2 times with saline solution and the absorbance was measured at 560 nm.

[1] = system: vancomycin-resistant Enterococus faecalis (VRE)(ATCC 51575); assay type: cell-based, Enterococcus faecalis; parameters: key to VRE (in vitro activity): peptide concentration in μg/ml (broth dilution assay); conditions: Table 9
Experimental: (§1) The antimicrobial activity of the peptides was determined using a broth dilution assay essentially as descried in the guidelines of the National Committee for […] (NCCLS) [National Committee for Clinical Laboratory Standards. Methods for dilution antimicrobial susceptibility tests for bacteria that grow aerobically. Fourth edition. Approved Standard (1997). Document M7-A4. […] The microdilution method has the advantages of requiring less amount of peptide for each assay and the possibility of multiple simultaneous inoculations and was used in most studies. Several of the strains of bacteria tested are further described in Table 3.
(§2) Preparation of peptide solutions. Stock peptide solutions were prepared in 5% DMSO in aq. sucrose (9%). Determination of peptide concentrations was done by quantitative HPLC analysis using known concentrations of internal standards and/or by measuring UV absorption of tryptophane-containing peptide solutions in H2O (λ=280 εTrp: 5690). Serial 2-fold dilutions were made in the above DMSO/aq. sucrose (9%) mixture with concentrations ranging approximately 400-2 μg/ml and aliquots were dispensed in test tubes (100 μl) for the macrodilution test or in microtiter plates (20 μl) for the microdilution assays.
(§3) Inoculum preparation. Overnight cultures of different microorganisms grown in suitable media were diluted 4000 times to an approximate inoculum size of 2.5×10^5 cfu/ml.
(§4) Macrodilution method. Macrodilution methods were performed using procedures similar to those described in the National Committee for Clinical Laboratory Standards. Methods for dilution antimicrobial susceptibility tests for bacteria that grow aerobically. Fourth edition. Approved Standard (1997). Document M7-A4. (NCCLS,Villanova, Pa., 1997). Two ml aliquots of the above inoculum were dispensed to test tubes containing different peptide solutions.
(§5) Microdilution method. Microdilution methods were performed using procedures similar to those described in the National Committee for Clinical Laboratory Standards. Methods for dilution antimicrobial susceptibility tests for bacteria that grow aerobically. Fourth edition. Approved Standard (1997). Document M7-A4.

[2] = system: S. aureus (MRSA) ATCC 33591; assay type: cell-based, Staphylococcus aureus; conditions: Table 9
Experimental: as §1, §2, §3, §4, §5

[3] = media a: anti-microbial media-3 (AM-3)
[4] = media c: Brain Heart Infusion (BHI)
[5] = media b: cation adjusted Meuller Hinton broth (MHBII)

Compound	RBC Hemolysis (HD50) (murine red blood cells)	VRE (in vitro activity) ([1]; media a: AM-3)	MRSA (in vitro activity) [2, 3]	VRE (in vitro activity) [1, 4]	MRSA (in vitro activity) [2, 5]	further results
CC(C)C[C@H]1NC(=O)[C@H](Cc2c[nH]c3ccccc23)NC(=O)[C@@H](CO)NC(=O)[C@H](CCCCN)NC(=O)[C@@H](Cc2ccccc2)NC(=O)[C@H](Cc2c[nH]c3ccccc23)NC(=O)[C@@H](CC(C)C)NC(=O)[C@H](Cc2c[nH]c3ccccc23)NC1=O [SEQ ID NO:42, [KSWLWLWF]] (cyclo(K[dS]W[dL]W[dL]W[dF]))	>26	>26	>26	–	–	–
CC(C)C[C@H]1NC(=O)[C@H](Cc2c[nH]c3ccccc23)NC(=O)[C@@H](Cc2ccccc2)NC(=O)[C@H](CCCCN)NC(=O)[C@@H](Cc2ccccc2)NC(=O)[C@H](CCCCN)NC(=O)[C@@H](CC(C)C)NC(=O)[C@H](Cc2c[nH]c3ccccc23)NC1=O [SEQ ID NO:100, [KFWLWLKF]] (cyclo(K[dF]W[dL]W[dL]K[dF]))	>78	10	11	–	–	–
CC(C)C[C@H]1NC(=O)[C@H](CCCCN)NC(=O)[C@@H](CC(C)C)NC(=O)[C@H](CCCCN)NC(=O)[C@@H](CC(C)C)NC(=O)[C@H](CCCCN)NC(=O)[C@@H](CC(C)C)NC(=O)[C@H](CCCCN)NC1=O [SEQ ID NO:4, KLKLKLKL] (cyclo(K[dL]K[dL]K[dL]K[dL]))	>200	–	–	>200	>200	–
CC(C)C[C@@H]1NC(=O)[C@@H](Cc2c[nH]c3ccccc23)NC(=O)[C@H](CCCCN)NC(=O)[C@@H](CCCCN)NC(=O)[C@H](CCCCN)NC(=O)[C@@H](Cc2c[nH]c3ccccc23)NC1=O [SEQ ID NO:121, [KKKWLW]] (cyclo(K[dK]K[dW]L[dW]))	>111	51	23	–	–	–
CC(C)C[C@@H]1NC(=O)[C@@H](Cc2c[nH]c3ccccc23)NC(=O)[C@H](CCC(N)=O)NC(=O)[C@@H](CCC(=O)O)NC(=O)[C@H](CCCCN)NC(=O)[C@@H](Cc2c[nH]c3ccccc23)NC1=O [SEQ ID NO:118, [KEQWLW]] (cyclo(K[dE]Q[dW]L[dW]))	>115	>115	>115	–	–	–
CC(C)C[C@H]1NC(=O)[C@H](Cc2c[nH]c3ccccc23)NC(=O)[C@@H](Cc2c[nH]c3ccccc23)NC(=O)[C@H](CCCCN)NC(=O)[C@@H](Cc2c[nH]c3ccccc23)NC(=O)[C@H](CCCCN)NC(=O)[C@@H](CC(C)C)NC(=O)[C@H](Cc2c[nH]c3ccccc23)NC1=O [SEQ ID NO:44, [KWWLWLKW]] (cyclo(K[dW]W[dL]W[dL]K[dW]))	>58	4	4	–	–	–
CC(C)C[C@@H]1NC(=O)[C@@H](Cc2c[nH]c3ccccc23)NC(=O)[C@H](CCC(N)=O)NC(=O)[C@@H](CCCCN)NC(=O)[C@H](CCCCN)NC(=O)[C@@H](Cc2c[nH]c3ccccc23)NC1=O [SEQ ID NO:122, [KKQWLW]] (cyclo(K[dK]Q[dW]L[dW]))	>215	81	27	–	–	–
CC(C)C[C@H]1NC(=O)[C@H](CCCCN)NC(=O)[C@@H](Cc2c[nH]cn2)NC(=O)[C@H](CCCCN)NC(=O)[C@@H](CC(C)C)NC(=O)[C@H](Cc2c[nH]c3ccccc23)NC(=O)[C@@H](CC(C)C)NC(=O)[C@H](Cc2c[nH]c3ccccc23)NC1=O [SEQ ID NO:50, [KHKLWLWL]] (cyclo(K[dH]K[dL]W[dL]W[dL]))	150	–	–	18	9	–
CC(C)C[C@H]1NC(=O)[C@H](CCCCN)NC(=O)[C@@H](CO)NC(=O)[C@H](CCCCN)NC(=O)[C@@H](CC(C)C)NC(=O)[C@H](CCCNC(=N)N)NC(=O)[C@@H](CC(C)C)NC(=O)[C@H](CCCNC(=N)N)NC1=O [SEQ ID NO:105, [KSKLRLRL]] (cyclo(K[dL]R[dL]R[dL]K[dS]))	>240	–	–	–	–	VRE (in vitro activity) ([1]; media c: Brain Heart Infusion (BHI), listed as [KSKLRLRL] (105)): >240; MRSA (in vitro activity) ([2]; media b: cation adjusted Meuller Hinton broth (MHBII), listed as [KSKLRLRL] (105)): >240
CC(C)C[C@H]1NC(=O)[C@H](C)NC(=O)[C@@H](CC(C)C)NC(=O)[C@H](CCCCN)NC(=O)[C@@H](CO)NC(=O)[C@H](CCCCN)NC(=O)[C@@H](CC(C)C)NC(=O)[C@H](C)NC1=O [SEQ ID NO:53, [KSKLALAL]] (cyclo(K[dS]K[dL]A[dL]A[dL]))	>280	–	–	>280	35	–
CC(C)C[C@@H]1NC(=O)[C@@H](Cc2c[nH]c3ccccc23)NC(=O)[C@H](CCCCN)NC(=O)[C@@H](Cc2c[nH]cn2)NC(=O)[C@H](CCCCN)NC(=O)[C@@H](Cc2c[nH]c3ccccc23)NC1=O [SEQ ID NO:119, [KHKWLW]] (cyclo(K[dH]K[dW]L[dW]))	>115	60	12	–	–	–
CC(C)C[C@H]1NC(=O)[C@H](C)NC(=O)[C@@H](CC(C)C)NC(=O)[C@H](CCCCN)NC(=O)[C@@H](Cc2c[nH]cn2)NC(=O)[C@H](CCCCN)NC(=O)[C@@H](CC(C)C)NC(=O)[C@H](Cc2c[nH]c3ccccc23)NC1=O [SEQ ID NO:46, [KHKLALWL]] (cyclo(K[dH]K[dL]A[dL]W[dL]))	>200	–	–	50	25	–
CC(C)C[C@@H]1NC(=O)[C@@H](Cc2c[nH]c3ccccc23)NC(=O)[C@H](CCC(N)=O)NC(=O)[C@@H](CCC(N)=O)NC(=O)[C@H](CCCCN)NC(=O)[C@@H](Cc2c[nH]c3ccccc23)NC1=O [SEQ ID NO:124, [KQQWLW]] (cyclo(K[dQ]Q[dW]L[dW]))	>35	>35	>35	–	–	–
CC(C)C[C@H]1NC(=O)[C@H](CCCCN)NC(=O)[C@@H](Cc2c[nH]cn2)NC(=O)[C@H](CCC(N)=O)NC(=O)[C@@H](Cc2c[nH]cn2)NC(=O)[C@H](CCCCN)NC(=O)[C@@H](CC(C)C)NC(=O)[C@H](Cc2c[nH]c3ccccc23)NC1=O [SEQ ID NO:86, [KHQHKLWL]] (cyclo(K[dH]Q[dH]K[dL]W[dL]))	>200	–	–	100	100	–
CC(C)[C@H]1NC(=O)[C@H](Cc2ccc(O)cc2)NC(=O)[C@@H](CO)NC(=O)[C@H](CCCCN)NC(=O)[C@@H](CO)NC(=O)[C@H](Cc2c[nH]c3ccccc23)NC1=O [SEQ ID NO:127, [KSYVWS]] (cyclo(K[dS]Y[dV]W[dS]))	>200	–	–	>200	>200	–
[KSOLWLWL] [SEQ ID NO:63]	–	–	–	25	12	RBC Hemolysis (HD50) (murine red blood cells; Table 9): 150
CC(C)C[C@@H]1NC(=O)[C@@H](Cc2c[nH]c3ccccc23)NC(=O)[C@H](CCC(N)=O)NC(=O)[C@@H](Cc2ccccc2)NC(=O)[C@H](CCCCN)NC(=O)[C@@H](Cc2c[nH]c3ccccc23)NC1=O [SEQ ID NO:129, [KFQWLW]] (cyclo(K[dF]Q[dW]L[dW]))	>81	10	25	–	–	–
CC(C)C[C@H]1NC(=O)[C@H](CCCCN)NC(=O)[C@@H](CO)NC(=O)[C@H](CCCCN)NC(=O)[C@@H](CC(C)C)NC(=O)[C@H](CCCNC(=N)N)NC(=O)[C@@H](CC(C)C)NC(=O)[C@H](CCCNC(=N)N)NC1=O [SEQ ID NO:106, [KSKLRLRL]] (cyclo(K[dL]R[dL]R[dL]K[dS]))	>400	–	–	–	–	VRE (in vitro activity) ([1]; media c: Brain Heart Infusion (BHI), listed as [KSKLRLRL] (106)): >400; MRSA (in vitro activity) ([2]; media b: cation adjusted Meuller Hinton broth (MHBII), listed as [KSKLRLRL] (106)): >400
